In PubChem BioAssay (NCI):
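1) Cells in 96-well plates. 2) Compound, 48 h, 5 concentrations. 3) Linear interpolation between surrounding doses. 4) Unreached endpoint = highest concentration. GI50 = concentration required for 50% inhibition of growth. TGI marks complete inhibition of growth.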

Columns and labels:
Assay in all cases: growth of human tumour cells (NCI), 48 h; in the data active means GI50 below about 0.43 µM; inactive means the rest
786-0 renal = tested on: 786-0 renal
A498 renal = tested on: A498 renal
A549 NSCLC = tested on: A549 NSCLC
ACHN renal = tested on: ACHN renal
BT-549 breast = tested on: BT-549 breast
CAKI-1 renal = tested on: CAKI-1 renal
COLO 205 colon = tested on: COLO 205 colon
DU-145 prostate = tested on: DU-145 prostate
EKVX NSCLC = tested on: EKVX NSCLC
HCC-2998 colon = tested on: HCC-2998 colon
HCT-116 colon = tested on: HCT-116 colon
HCT-15 colon = tested on: HCT-15 colon
HOP-62 NSCLC = tested on: HOP-62 NSCLC
HOP-92 NSCLC = tested on: HOP-92 NSCLC
HS 578T breast = tested on: HS 578T breast
HT29 colon = tested on: HT29 colon
IGROV1 ovarian = tested on: IGROV1 ovarian
K-562 leukemia = tested on: K-562 leukemia
KM12 colon = tested on: KM12 colon
LOX IMVI melanoma = tested on: LOX IMVI melanoma
M14 melanoma = tested on: M14 melanoma
MALME-3M melanoma = tested on: MALME-3M melanoma
MCF7 breast = tested on: MCF7 breast
MDA-MB-231 breast = tested on: MDA-MB-231 breast
MDA-MB-435 = tested on: MDA-MB-435
MDA-N = tested on: MDA-N
MOLT-4 leukemia = tested on: MOLT-4 leukemia
NCI-H226 lung = tested on: NCI-H226 lung
NCI-H23 lung = tested on: NCI-H23 lung
NCI-H460 lung = tested on: NCI-H460 lung
NCI-H522 lung = tested on: NCI-H522 lung
NCI/ADR-RES ovarian = tested on: NCI/ADR-RES ovarian
OVCAR-3 ovarian = tested on: OVCAR-3 ovarian
OVCAR-4 ovarian = tested on: OVCAR-4 ovarian
OVCAR-5 ovarian = tested on: OVCAR-5 ovarian
OVCAR-8 ovarian = tested on: OVCAR-8 ovarian
PC-3 prostate = tested on: PC-3 prostate
RPMI-8226 leukemia = tested on: RPMI-8226 leukemia
SF-268 CNS = tested on: SF-268 CNS
SF-295 CNS = tested on: SF-295 CNS
SF-539 CNS = tested on: SF-539 CNS
SK-MEL-2 melanoma = tested on: SK-MEL-2 melanoma
SK-MEL-28 melanoma = tested on: SK-MEL-28 melanoma
SK-MEL-5 melanoma = tested on: SK-MEL-5 melanoma
SK-OV-3 ovarian = tested on: SK-OV-3 ovarian
SN12C renal = tested on: SN12C renal
SNB-19 CNS = tested on: SNB-19 CNS
SNB-75 CNS = tested on: SNB-75 CNS
SR leukemia = tested on: SR leukemia
SW-620 colon = tested on: SW-620 colon
T-47D breast = tested on: T-47D breast
TK-10 renal = tested on: TK-10 renal
U251 CNS = tested on: U251 CNS
UACC-257 melanoma = tested on: UACC-257 melanoma
UACC-62 melanoma = tested on: UACC-62 melanoma
UO-31 renal = tested on: UO-31 renal
CCRF-CEM leukemia = tested on: CCRF-CEM leukemia
HL-60(TB) leukemia = tested on: HL-60(TB) leukemia

CCOC(=O)C1=C(C#N)S(=O)(=O)c2c(oc(C)c2C)N1
> 100 µM: TGI (786-0 renal) | TGI (A498 renal) | TGI (A549 NSCLC) | TGI (ACHN renal) | TGI (BT-549 breast) | TGI (CAKI-1 renal) | TGI (COLO 205 colon) | TGI (DU-145 prostate) | TGI (EKVX NSCLC) | TGI (HCC-2998 colon) | TGI (HCT-116 colon) | TGI (HCT-15 colon) | TGI (HOP-62 NSCLC) | TGI (HOP-92 NSCLC) | TGI (HS 578T breast) | TGI (HT29 colon) | TGI (IGROV1 ovarian) | TGI (K-562 leukemia) | TGI (KM12 colon) | TGI (LOX IMVI melanoma) | TGI (M14 melanoma) | TGI (MALME-3M melanoma) | TGI (MCF7 breast) | TGI (MDA-MB-231 breast) | TGI (MDA-MB-435) | TGI (MDA-N) | TGI (MOLT-4 leukemia) | TGI (NCI-H226 lung) | TGI (NCI-H23 lung) | TGI (NCI-H460 lung) | TGI (NCI-H522 lung) | TGI (NCI/ADR-RES ovarian) | TGI (OVCAR-3 ovarian) | TGI (OVCAR-4 ovarian) | TGI (OVCAR-5 ovarian) | TGI (OVCAR-8 ovarian) | TGI (PC-3 prostate) | TGI (RPMI-8226 leukemia) | TGI (SF-268 CNS) | TGI (SF-295 CNS) | TGI (SF-539 CNS) | TGI (SK-MEL-2 melanoma) | TGI (SK-MEL-28 melanoma) | TGI (SK-MEL-5 melanoma) | TGI (SK-OV-3 ovarian) | TGI (SN12C renal) | TGI (SNB-19 CNS) | TGI (SNB-75 CNS) | TGI (SR leukemia) | TGI (SW-620 colon) | TGI (T-47D breast) | TGI (TK-10 renal) | TGI (U251 CNS) | TGI (UACC-257 melanoma) | TGI (UACC-62 melanoma) | TGI (UO-31 renal)

O=c1[nH]cnc2c1ncn2C1CCC(CO)O1 (stereo not given)
> 1000 µM: TGI (786-0 renal) | TGI (A549 NSCLC) | TGI (ACHN renal) | TGI (BT-549 breast) | TGI (CAKI-1 renal) | TGI (CCRF-CEM leukemia) | TGI (COLO 205 colon) | TGI (DU-145 prostate) | TGI (EKVX NSCLC) | TGI (HCC-2998 colon) | TGI (HCT-116 colon) | TGI (HCT-15 colon) | TGI (HL-60(TB) leukemia) | TGI (HOP-62 NSCLC) | TGI (HOP-92 NSCLC) | TGI (HS 578T breast) | TGI (HT29 colon) | TGI (IGROV1 ovarian) | TGI (K-562 leukemia) | TGI (KM12 colon) | TGI (LOX IMVI melanoma) | TGI (M14 melanoma) | TGI (MALME-3M melanoma) | TGI (MCF7 breast) | TGI (MDA-MB-231 breast) | TGI (MDA-MB-435) | TGI (MDA-N) | TGI (MOLT-4 leukemia) | TGI (NCI-H226 lung) | TGI (NCI-H23 lung) | TGI (NCI-H522 lung) | TGI (NCI/ADR-RES ovarian) | TGI (OVCAR-3 ovarian) | TGI (OVCAR-4 ovarian) | TGI (OVCAR-5 ovarian) | TGI (OVCAR-8 ovarian) | TGI (PC-3 prostate) | TGI (RPMI-8226 leukemia) | TGI (SK-MEL-2 melanoma) | TGI (SK-MEL-5 melanoma) | TGI (SK-OV-3 ovarian) | TGI (SN12C renal) | TGI (SR leukemia) | TGI (SW-620 colon) | TGI (T-47D breast) | TGI (TK-10 renal) | TGI (UACC-257 melanoma) | TGI (UACC-62 melanoma) | TGI (UO-31 renal)
inactive: GI50 (A549 NSCLC) > 1000 µM | GI50 (CAKI-1 renal) > 1000 µM | GI50 (CCRF-CEM leukemia) > 1000 µM | GI50 (COLO 205 colon) > 1000 µM | GI50 (EKVX NSCLC) > 1000 µM | GI50 (HCC-2998 colon) > 1000 µM | GI50 (HCT-116 colon) > 1000 µM | GI50 (HCT-15 colon) > 1000 µM | GI50 (HL-60(TB) leukemia) > 1000 µM | GI50 (HOP-62 NSCLC) > 1000 µM | GI50 (HOP-92 NSCLC) > 1000 µM | GI50 (HT29 colon) > 1000 µM | GI50 (IGROV1 ovarian) > 1000 µM | GI50 (K-562 leukemia) > 1000 µM | GI50 (KM12 colon) > 1000 µM | GI50 (LOX IMVI melanoma) > 1000 µM | GI50 (MALME-3M melanoma) > 1000 µM | GI50 (MCF7 breast) > 1000 µM | GI50 (MOLT-4 leukemia) > 1000 µM | GI50 (NCI-H226 lung) > 1000 µM | GI50 (NCI-H23 lung) > 1000 µM | GI50 (NCI-H522 lung) > 1000 µM | GI50 (NCI/ADR-RES ovarian) > 1000 µM | GI50 (OVCAR-3 ovarian) > 1000 µM | GI50 (OVCAR-4 ovarian) > 1000 µM | GI50 (OVCAR-5 ovarian) > 1000 µM | GI50 (OVCAR-8 ovarian) > 1000 µM | GI50 (RPMI-8226 leukemia) > 1000 µM | GI50 (SK-MEL-2 melanoma) > 1000 µM | GI50 (SK-MEL-5 melanoma) > 1000 µM | GI50 (SK-OV-3 ovarian) > 1000 µM | GI50 (SN12C renal) > 1000 µM | GI50 (SW-620 colon) > 1000 µM | GI50 (UACC-257 melanoma) > 1000 µM | GI50 (UACC-62 melanoma) > 1000 µM
